For data set [1], the system named is Human herpesvirus 5 (HCMV). The data set can be described thus: Antiviral screening at 10 µM, plaque reduction. The format is cell-based. As to conditions: Human betaherpesvirus 5, antiviral screening, HCMV-infected cells, read-out: Cell line (viability %) HCMV. The method, then:
Antiviral properties of compounds 1a, 1c, 1a[PF6], 1c[PF6], 9b[PF6], 9c[PF6], 10a–10d, 2a, and 2b were assessed against five viruses: Human herpesvirus 1 (HSV-1, VR-539), Human parainfluenza virus type 3 (HPIV-3, VR-93), Human adenovirus 5 (AdV5, VR-5), Human herpesvirus 5 (HCMV, VR-977), and Encephalomyocarditis virus (EMCV, VR-1479). Viruses were purchased from the American Type Culture Collection (ATCC, Manassas, VA, USA).
All tested compounds were dissolved in DMSO (dimethyl sulfoxide, Sigma-Aldrich, Darmstadt, Germany) and then suspended in Minimum Essential Medium (MEM; Sigma-Aldrich, Darmstadt, Germany) supplemented with 2% heat-inactivated fetal bovine serum (FBS; Sigma-Aldrich, Darmstadt, Germany), 2 mM L-glutamine (Sigma-Aldrich, Darmstadt, Germany), and 100 units/mL penicillin G with […] streptomycin (Sigma-Aldrich, Darmstadt, Germany).
Vero, LLC-MK2, NCTC clone 929, MRC-5, and HeLa cells were propagated in Minimum Essential Medium (MEM; Sigma-Aldrich, Darmstadt, Germany) supplemented with 10% heat-inactivated fetal bovine serum (FBS; Sigma-Aldrich, Darmstadt, Germany) and 100 units/mL penicillin G with […] streptomycin (Sigma-Aldrich, Darmstadt, Germany). Upon reaching 80–90% confluency, cells were harvested with 0.25% trypsin in 1 mM EDTA (Life Technologies, Warsaw, Poland) and seeded onto 96-well microplates at 2 × 10^5 cells/mL. After overnight incubation of cells at 37 °C in a humidified atmosphere containing 5% CO2, the culture medium was removed, and cells were inoculated with the respective virus solution in MEM supplemented with 2% FBS and antibiotics (HSV-1 MOI 0.005, 1000 virions/mL; HPIV-3 MOI 0.01, 2000 virions/mL; AdV5 MOI 0.005, 1000 virions/mL, EMCV MOI 0.005, 1000 virions/mL, HCMV 20 PFU (plaque forming units) per well). After a 1-h (HSV-1, HPIV-3, AdV5, and EMCV) or 2-h adsorption period (HCMV), the residual virus was removed, and the infected cells were further incubated with a 100 μL freshly prepared solution of tested compounds diluted with a maintenance medium supplemented with 2% FBS to obtain compound concentrations of 10 µM. The final concentration of DMSO in the medium was 0.1%. All experiments were carried out in triplicate. The cells monolayers were incubated with the compounds at 37 °C in a humidified atmosphere containing 5% CO2 until the typical cytopathic effect (CPE) was visible. Viral infection was evaluated by the MTT assay or plaque reduction assay (HCMV). After incubation with drugs, the cells were treated with 3-(4,5-dimethylthiazol-2-yl)-2,5-diphenyltetrazolium bromide dye solution (MTT, Sigma-Aldrich, Darmstadt, Germany) (25 μL, 5 mg/mL) for 2 h and lysed with solvent solution (100 μL) containing: DMF (Sigma-Aldrich, Darmstadt, Germany) (45 mL), SDS (Sigma-Aldrich, Darmstadt, Germany) (13.5 g), and distilled water (55 mL). After overnight incubation at 37 °C, the optical density at 550 nm and a reference wavelength of 670 nm were measured on a microplate spectrophotometer, Varioskan Lux (Thermo Fisher Scientific, Waltham, MA, USA). The number of HCMV plaques was counted under an inverted microscope Olympus IX73 (Olympus, Tokyo, Japan).

Data set [2] is described as follows: Cytotoxicity screening at 10 µM (MTT). The format is cell-based, Mus musculus. As to conditions: Mus musculus, NCTC clone 929 cells, read-out: Cell line (viability %) NCTC clone 929.
The nature of data set [3]: Cytotoxicity MTT assay (0.1–1000 µM), CC50. The format is cell-based, Human. The settings on record: human, HeLa cells. A general note: Formazan colour is commonly taken as a measure of viable cells.
Data set [4] can be described thus: Cytotoxicity MTT assay (0.1–1000 µM), CC50. It counts as cell-based, Mus musculus. The settings on record: Mus musculus, NCTC clone 929 cells, Table S2, range 0.1-1000 µM, NCTC clone 929; read-out: Cell line (CC50 M) NCTC clone 929.
Data set [5] in a line: Cytotoxicity MTT assay (0.1–1000 µM), CC50. The format is cell-based, Macaca mulatta. The settings on record: Macaca mulatta, LLC-MK2 cells.
Data set [6] is described as follows: Cytotoxicity screening at 10 µM (MTT). It counts as cell-based, Human. The settings on record: human, HeLa cells, read-out: Cell line (viability %) HeLa.
For data set [7], the system named is Human herpesvirus 1 (HSV-1). The data set can be described thus: Antiviral screening at 10 µM. It counts as cell-based. As to conditions: Human alphaherpesvirus 1, antiviral screening, HSV-1-infected cells, read-out: Cell line (viability %) HSV-1. In outline:
(§1)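 Infected Vero, LLC-MK2, NCTC 929 or HeLa cell monolayers (MOI 0.005; HPIV-3 MOI 0.01) were treated after 1-h adsorption with compounds at 10 µM (0.1% DMSO). Cultures were incubated at 37 °C until cytopathic effect was visible. Viral infection was scored by MTT assay (OD 550/670 nm), in triplicate.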

For data set [8], the system named is Human parainfluenza virus type 3 (HPIV-3). The data set can be described thus: Antiviral screening at 10 µM. It counts as cell-based. The settings on record: Human respirovirus 3, antiviral screening, HPIV-3-infected cells, read-out: Cell line (viability %) HPIV-3. In outline: as §1
The subject of data set [9] is Encephalomyocarditis virus (EMCV). The data set can be described thus: Antiviral screening at 10 µM. As to conditions: Cardiovirus A, EMCV-infected cells, read-out: Cell line (viability %) EMCV. The format is cell-based. In outline: as §1
The subject of data set [10] is Human adenovirus 5 (AdV5). As to the kind of experiment: Antiviral screening at 10 µM. The format is cell-based. As to conditions: Human mastadenovirus C, AdV5-infected cells, read-out: Cell line (viability %) AdV5. In outline: as §1
Data set [11] is described as follows: Cytotoxicity screening at 10 µM (MTT). The format is cell-based, Macaca mulatta. As to conditions: Macaca mulatta, LLC-MK2 cells, read-out: Cell line (viability %) LLC-MK2.
Data set [12] in a line: Cytotoxicity screening at 10 µM (MTT). The format is cell-based, Human. The settings on record: human, MRC-5 cells, read-out: Cell line (viability %) MRC-5.
Data set [13] can be described thus: Cytotoxicity screening at 10 µM (MTT). It counts as cell-based, Cercopithecus aethiops. The settings on record: Cercopithecus aethiops, Vero cells, read-out: Cell line (viability %) Vero.

Molecules are shown by their SMILES. Read-outs that look alike come from different tables or passages of the source. Bounds are passed on as bounds.

By viability is commonly meant the share of living cells, or the viability signal relative to a control. Broadly, the CC50 is the concentration at which the toxic effect on the cells reaches its halfway point.

In the case of `Cc1c(C)n(Cc2ccccc2)c(=S)n1Cc1ccccc1` [Compound 10a], the viability at 10 µM in data set [1] was 3.6%; in data set [7] it was 29.7%; in [8], 69.2%; in [9], 79.6%; in data set [10], 62%. Also, the viability at 48 h, 10 µM stood at 93.8% in [2]; 61.1% in data set [6]; 64.9% in data set [11]; 74.3% in data set [12]; 83.8% in data set [13]. Besides, the CC50 at 48 h in data set [3] (MTT, 48 h, read-out: CC50 Cancer Cell Lines HeLa) was < 20 µM; in data set [3] (Table S2, range 0.1-1000 µM, read-out: Cell line (CC50 M) HeLa), 16.9 ± 2.19 µM; in [4], 46 ± 6.93 µM; in [5] (LLC-MK2, MTT, 48 h, read-out: CC50 Normal Cell Lines LLC-MK2), < 20 µM; in [5] (Table S2, range 0.1-1000 µM, LLC-MK2, read-out: Cell line (CC50 M) LLC-MK2), 16.2 ± 3.75 µM.

These data come from publication PMC9181938, “Fluorinated Analogues of Lepidilines A and C: Synthesis and Screening of Their Anticancer and Antiviral Activity” (Molecules, 2022).
